Measurements published in patent US9717703B2, “Emulsion and emulsion preconcentrate compositions comprising omega-3 fatty acids and uses thereof are disclosed” (GLAXOSMITHKLINE LLC, priority 2009, dated 2017).

Assay: Clinical study Part B, two-week repeat dose plasma EPA/DHA pharmacokinetics
Conditions: human, in vivo
Text: Part A comprised single dose administration of emulsion pre-concentrate capsules or liquid emulsion equivalent to 1.68 g LOVAZA®. Part B comprised two-week, repeat dosing of selected doses of the emulsion pre-concentrate capsules. […] Part B was a single blind, randomized, parallel group, placebo controlled study consisting of a 2-week repeat dose period with 3 dose levels of the K85EE emulsion pre-concentrate capsules, and one dose of LOVAZA®. Within each cohort, at least eight healthy subjects were randomized to an active treatment group, and at least 2 subjects were randomized to a matching placebo (1000 mg capsule containing corn oil, NF 994 mg and D-Alpha Tocopherol, USP 6 mg). Data from placebo subjects was pooled for analysis. Subjects, checked into the clinical research unit, participated in a test meal on Day -2 and had 24-hr baseline EPA/DHA profiles on Day -1 and Day 1. Subjects were released from the clinic on Day 2, and returned for daily dosing on Days 3 through 12 (with a brief outpatient visit on Day 6). Subjects checked into the clinic again on the evening of Day 12, and on Day 13 they had 24-hr EPA/DHA profiles collected. Subjects were released from the clinic on Day 14, following procedures including a test meal and triglyceride sampling. In Part B, subjects were assigned to either a) one of 3 dose levels of the K85EE emulsion pre-concentrate capsules, b) LOVAZA®, or c) to placebo to match one of the 4 active treatments. Subjects were blinded as to whether they were receiving an active treatment or the corresponding placebo. The randomization ratio for active:placebo within each cohort was 4:1. Part B treatments are summarized below: The K85EE emulsion pre-concentrate capsules and LOVAZA® were administered as capsules, once daily in the manner described for Part A, and the placebos were administered as for the corresponding active treatment. Subjects were required to fast only on PK sampling days. Plasma EPA and DHA concentrations were determined according to the above method.

Free DHA AUC (0-24 h) Geometric LS Mean, Ref. (Day 1): 5.61 µg·h/mL
Free DHA AUC (0-24 h) Geometric LS Mean, Test (Day 13): 9.40 µg·h/mL
Free DHA Cmax Geometric LS Mean, Ref. (Day 1): 430 ng/mL
Free DHA Cmax Geometric LS Mean, Test (Day 13): 790 ng/mL
Free EPA AUC (0-24 h) Geometric LS Mean, Ref. (Day 1): 1.66 µg·h/mL
Free EPA AUC (0-24 h) Geometric LS Mean, Test (Day 13): 3.22 µg·h/mL
Free EPA Cmax Geometric LS Mean, Ref. (Day 1): 90 ng/mL
Free EPA Cmax Geometric LS Mean, Test (Day 13): 200 ng/mL
Total DHA AUC (0-24 h) Geometric LS Mean, Ref. (Day 1): 810.21 µg·h/mL
Total DHA AUC (0-24 h) Geometric LS Mean, Test (Day 13): 1356.51 µg·h/mL
Total DHA Cmax Geometric LS Mean, Ref. (Day 1): 38290 ng/mL
Total DHA Cmax Geometric LS Mean, Test (Day 13): 65370 ng/mL
Total EPA AUC (0-24 h) Geometric LS Mean, Ref. (Day 1): 251.67 µg·h/mL
Total EPA AUC (0-24 h) Geometric LS Mean, Test (Day 13): 611.34 µg·h/mL
Total EPA Cmax Geometric LS Mean, Ref. (Day 1): 12860 ng/mL
Total EPA Cmax Geometric LS Mean, Test (Day 13): 30840 ng/mL
Substance: omega-3-acid ethyl esters [LOVAZA]
